Experimental data: patent publication US20250296953A1, “3,4-THIAZOLO-STEROIDS AND METHODS OF MAKING AND USING THE SAME” (Arkansas State University - Jonesboro, priority 2018, published 2025)
Like-named read-outs stand apart in the source and are kept apart here.

Tests used:
Format in all cases: cell-based
MALME-3M = experiment: Melanoma cytotoxicity assay (resazurin); details: human, 24 h
Procedure: On day 1, the cell line trypsinized and centrifuged to form cell pellet. The pellet was diluted in media, then counted using Countess automated cell counter. Approximately 4000 cells (198 uL) per well plated in […]. A control well of 200 uL growth media was also prepared. Wells closest to plate perimeter were filled with 200 uL PBS to prevent inner well evaporation. The 96 well plates are incubated in 37° C. incubator at 5% CO2 for 24 hours.
On day 2, compounds were added (in triplicate) along with DMSO/Dacarbazine controls (2 uL) added to bring wells to volume of 200 μL. The 96 well plates are incubated in 37° C. incubator at 5% CO2 for 24 hours.
On day 3, 40 μL of 0.15 mg/ml reszurin solution added to wells. Samples were placed in a 37° C. incubator at 5% CO2 for 6 hours. Excitation and emission for fluorescence measured at 544 nm and 590 nm using BMG Labtech Fluostar Optima plate reader
Percent viability determined by taking average of each triplicate well fluorescence and subtracting GM well reading to remove the background signal. This difference is then divided by the average of the negative control (DMSO) wells to determine percent viability.
IC50s were determined by using cereal dilution of compound to determine viability. Viabilities and concentration of cells are analyzed in Graphpad Prism by creating sigmoidal curve graph, which will determine the IC50 concentration.
We analyzed the ability of the thiazole-androstane derivatives to inhibit growth in various melanoma cell lines. The growth inhibition against melanoma cell lines of various compound is shown below in Tables 19 and 20. Inhibition results are reported as the IC50 concentration in μM of the indicated compound or as the percent viability […] of the indicated compound. NA=not available.

SK-MEL-5 = experiment: Melanoma cytotoxicity assay (resazurin); details: human, 24 h
Method in brief: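 Readout: resazurin fluorescence (ex 544, em 590 nm) after 6 h dye incubation, following 24 h compound exposure of ~4000 cells/well. Viability = background-subtracted signal over DMSO wells; IC50 by sigmoidal curve fitting.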

LOX IMVI = experiment: Melanoma cytotoxicity assay (resazurin); details: for IC50: Homo sapiens, LOX IMVI melanoma cells
Method in brief: (§1)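 ~4000 cells/well, 24 h attach, 37° C/5% CO2; cpd triplicate, 24 h; resazurin 6 h; fluor 544/590 nm. % viability vs DMSO after media-blank subtraction; IC50 from dilution series, sigmoidal fit.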

SK-MEL-25 = experiment: Melanoma cytotoxicity assay (resazurin); details: for IC50: Homo sapiens
Method in brief: as §1

SK-MEL-28 = experiment: Melanoma cytotoxicity assay (resazurin); details: for IC50: Homo sapiens, SK-MEL-28 melanoma cells
Method in brief: as §1

HFF-1 = experiment: Cytotoxicity assay (resazurin); details: Homo sapiens, HFF-1 cells

Compound: Cc1ccc(Nc2nc3c(s2)C2=CC[C@H]4[C@@H]5CC[C@H](O)[C@@]5(C)CC[C@@H]4[C@@]2(C)CC3)cc1 [IIIa.33, (1S,2R,13R,14S,17S,18S)-2,18-dimethyl-7-(4-methylanilino)-8-thia-6-azapentacyclo[11.7.0.02,10.05,9.014,18]icosa-5(9),6,10-trien-17-ol]
- MALME-3M (% viability) (MALME-3M): 23.03%
- SK-MEL-5 (% viability) (SK-MEL-5): 1.21%
- IC50 (LOX IMVI): 4.64 µM
- IC50 (LOX IMVI; 24 hours, resazurin): < 10 µM
- LOX-IMVI (% viability) (LOX IMVI; human, 24 h): 6%
- IC50 (SK-MEL-25; SK-MEL-25 melanoma cells (head prints SK-25), read-out: SK-25 IC50): 6 µM
- IC50 (SK-MEL-25; SK-MEL-25 melanoma cells, 24 hours, resazurin, read-out: SK-MEL-25 (IC50)): < 10 µM
- SK-MEL-25 (% viability) (SK-MEL-25; human, 24 h): 7.53%
- IC50 (SK-MEL-28): 6 µM
- IC50 (SK-MEL-28; 24 hours, resazurin): < 10 µM
- SK-MEL-28 (% viability) (SK-MEL-28; human, 24 h): 0.90%
- IC50 (HFF-1; read-out: HFF-1 (IC50)): 13 µM
- IC50 (HFF-1; read-out: IC50 in cell line HFF-1): 13 µM
